Results: ChEMBL document CHEMBL4507268 (2021)

Legend:
[1] = biological target: T1, Inhibitor of nuclear factor kappa-B kinase subunit alpha (Homo sapiens) (UniProt O15111); settings: Compound concentration 1000.0 nM
T1 sequence (whole entry): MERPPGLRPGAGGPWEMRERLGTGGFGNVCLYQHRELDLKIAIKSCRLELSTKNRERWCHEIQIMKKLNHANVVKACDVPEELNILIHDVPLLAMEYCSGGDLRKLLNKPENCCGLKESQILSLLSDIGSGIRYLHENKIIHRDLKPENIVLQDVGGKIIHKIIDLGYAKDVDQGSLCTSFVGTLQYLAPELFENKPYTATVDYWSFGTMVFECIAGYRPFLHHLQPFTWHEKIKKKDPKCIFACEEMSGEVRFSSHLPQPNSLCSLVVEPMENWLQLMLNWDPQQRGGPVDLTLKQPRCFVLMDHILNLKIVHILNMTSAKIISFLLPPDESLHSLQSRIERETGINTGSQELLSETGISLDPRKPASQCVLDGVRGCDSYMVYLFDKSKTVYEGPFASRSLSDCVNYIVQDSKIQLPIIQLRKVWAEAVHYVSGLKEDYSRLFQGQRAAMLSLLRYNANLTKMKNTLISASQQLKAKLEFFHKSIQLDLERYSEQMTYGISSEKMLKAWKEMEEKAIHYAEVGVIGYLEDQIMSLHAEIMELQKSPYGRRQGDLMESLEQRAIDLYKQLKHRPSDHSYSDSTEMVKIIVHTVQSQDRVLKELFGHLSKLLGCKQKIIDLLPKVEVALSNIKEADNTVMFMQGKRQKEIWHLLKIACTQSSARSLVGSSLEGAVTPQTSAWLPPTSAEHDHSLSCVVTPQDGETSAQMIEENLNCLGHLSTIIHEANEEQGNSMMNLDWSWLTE

[2] = biological target: 5-hydroxytryptamine receptor 2B (Homo sapiens) (UniProt P41595); settings: Compound concentration 10.0 uM
[3] = tested on: Proto-oncogene tyrosine-protein kinase receptor Ret (Homo sapiens), P07949 [M918T]; settings: Compound concentration 1000.0 nM
[4] = tested on: Epidermal growth factor receptor (Homo sapiens), P00533 [L858R]; settings: Compound concentration 1000.0 nM
[5] = biological target: Mast/stem cell growth factor receptor Kit (Homo sapiens) (UniProt P10721); settings: Compound concentration 1000.0 nM
[6] = biological target: T2, Dual specificity protein kinase TTK (Homo sapiens) (UniProt P33981); settings: Compound concentration 1000.0 nM
T2 sequence (whole entry): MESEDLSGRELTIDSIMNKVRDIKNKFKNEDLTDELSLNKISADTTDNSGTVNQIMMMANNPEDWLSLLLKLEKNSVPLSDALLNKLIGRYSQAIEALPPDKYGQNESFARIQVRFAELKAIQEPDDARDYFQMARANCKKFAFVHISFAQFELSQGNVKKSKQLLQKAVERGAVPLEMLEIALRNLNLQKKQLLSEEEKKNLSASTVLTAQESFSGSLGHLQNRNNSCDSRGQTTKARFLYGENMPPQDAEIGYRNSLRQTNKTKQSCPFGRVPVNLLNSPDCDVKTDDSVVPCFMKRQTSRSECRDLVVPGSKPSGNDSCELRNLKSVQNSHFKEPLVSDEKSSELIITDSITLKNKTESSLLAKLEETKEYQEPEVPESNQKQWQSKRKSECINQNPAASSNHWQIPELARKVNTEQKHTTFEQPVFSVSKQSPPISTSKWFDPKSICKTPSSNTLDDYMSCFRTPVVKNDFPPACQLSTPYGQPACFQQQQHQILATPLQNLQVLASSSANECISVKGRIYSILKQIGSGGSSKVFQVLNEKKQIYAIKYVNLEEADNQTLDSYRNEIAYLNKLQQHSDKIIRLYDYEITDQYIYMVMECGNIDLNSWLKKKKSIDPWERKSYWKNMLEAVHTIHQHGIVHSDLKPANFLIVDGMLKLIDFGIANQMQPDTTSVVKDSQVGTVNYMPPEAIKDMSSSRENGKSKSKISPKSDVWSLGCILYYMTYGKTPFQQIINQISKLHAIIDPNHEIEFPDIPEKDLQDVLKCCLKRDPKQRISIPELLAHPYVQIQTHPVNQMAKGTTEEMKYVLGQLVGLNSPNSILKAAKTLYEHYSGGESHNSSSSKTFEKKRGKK

[7] = biological target: Ephrin type-A receptor 6 (Homo sapiens) (UniProt Q9UF33); settings: Compound concentration 1000.0 nM
[8] = biological target: Serine/threonine-protein kinase VRK2 (Homo sapiens) (UniProt Q86Y07); settings: Compound concentration 1000.0 nM
[9] = biological target: Serine/threonine-protein kinase LATS1 (Homo sapiens) (UniProt O95835); settings: Compound concentration 1000.0 nM
[10] = biological target: Casein kinase I isoform epsilon (Homo sapiens) (UniProt P49674); settings: Compound concentration 1000.0 nM
[11] = biological target: Myosin-IIIa (Homo sapiens) (UniProt Q8NEV4); settings: Compound concentration 1000.0 nM
[12] = biological target: Dual specificity testis-specific protein kinase 1 (Homo sapiens) (UniProt Q15569); settings: Compound concentration 1000.0 nM
[13] = biological target: STE20-like serine/threonine-protein kinase (Homo sapiens) (UniProt Q9H2G2); settings: Compound concentration 1000.0 nM
[14] = biological target: Serine/threonine-protein kinase 36 (Homo sapiens) (UniProt Q9NRP7); settings: Compound concentration 1000.0 nM
[15] = biological target: cAMP-dependent protein kinase catalytic subunit alpha (Homo sapiens) (UniProt P17612); settings: Compound concentration 1000.0 nM
[16] = biological target: Serine/threonine-protein kinase SIK3 (Homo sapiens) (UniProt Q9Y2K2); settings: Compound concentration 1000.0 nM
[17] = biological target: Myotonin-protein kinase (Homo sapiens) (UniProt Q09013); settings: Compound concentration 1000.0 nM
[18] = tested on: Tyrosine-protein kinase ABL1 (Homo sapiens), P00519 [F317L]; settings: Compound concentration 1000.0 nM
[19] = tested on: Tyrosine-protein kinase ABL1 (Homo sapiens), P00519 [M351T]; settings: Compound concentration 1000.0 nM
[20] = biological target: Serine/threonine-protein kinase PRP4 homolog (Homo sapiens) (UniProt Q13523); settings: Compound concentration 1000.0 nM
[21] = biological target: Protein kinase C eta type (Homo sapiens) (UniProt P24723); settings: Compound concentration 1000.0 nM
[22] = tested on: Mast/stem cell growth factor receptor Kit (Homo sapiens), P10721 [A829P]; settings: Compound concentration 1000.0 nM
Mast/stem cell growth factor receptor Kit (Homo sapiens), P10721 [A829P], sequence (P10721 whole entry A829P): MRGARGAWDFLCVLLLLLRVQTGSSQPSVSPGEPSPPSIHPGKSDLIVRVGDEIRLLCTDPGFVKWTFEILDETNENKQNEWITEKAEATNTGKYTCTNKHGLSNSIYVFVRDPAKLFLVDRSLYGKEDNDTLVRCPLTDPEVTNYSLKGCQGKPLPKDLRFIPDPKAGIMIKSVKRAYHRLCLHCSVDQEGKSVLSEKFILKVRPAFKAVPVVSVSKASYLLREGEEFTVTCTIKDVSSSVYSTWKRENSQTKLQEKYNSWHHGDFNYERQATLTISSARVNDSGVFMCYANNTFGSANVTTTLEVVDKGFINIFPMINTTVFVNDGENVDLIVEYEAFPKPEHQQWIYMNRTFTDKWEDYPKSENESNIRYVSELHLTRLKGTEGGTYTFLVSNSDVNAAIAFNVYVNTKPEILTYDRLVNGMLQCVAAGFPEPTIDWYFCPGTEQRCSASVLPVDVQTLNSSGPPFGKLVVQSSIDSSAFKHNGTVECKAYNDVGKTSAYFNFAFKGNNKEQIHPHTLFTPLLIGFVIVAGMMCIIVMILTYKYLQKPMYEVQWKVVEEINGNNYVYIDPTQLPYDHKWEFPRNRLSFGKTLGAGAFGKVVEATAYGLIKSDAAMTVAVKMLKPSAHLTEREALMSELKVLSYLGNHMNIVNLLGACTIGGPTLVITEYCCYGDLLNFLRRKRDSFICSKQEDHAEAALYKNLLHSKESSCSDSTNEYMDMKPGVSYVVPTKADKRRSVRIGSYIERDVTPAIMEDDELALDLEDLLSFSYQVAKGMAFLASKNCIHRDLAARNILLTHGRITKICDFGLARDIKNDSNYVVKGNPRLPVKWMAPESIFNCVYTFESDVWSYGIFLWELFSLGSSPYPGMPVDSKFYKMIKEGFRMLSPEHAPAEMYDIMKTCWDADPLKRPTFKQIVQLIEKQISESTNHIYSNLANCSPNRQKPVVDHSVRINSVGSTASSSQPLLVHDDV

Serine/threonine-protein kinase PRP4 homolog (Homo sapiens), sequence (Q13523 whole entry): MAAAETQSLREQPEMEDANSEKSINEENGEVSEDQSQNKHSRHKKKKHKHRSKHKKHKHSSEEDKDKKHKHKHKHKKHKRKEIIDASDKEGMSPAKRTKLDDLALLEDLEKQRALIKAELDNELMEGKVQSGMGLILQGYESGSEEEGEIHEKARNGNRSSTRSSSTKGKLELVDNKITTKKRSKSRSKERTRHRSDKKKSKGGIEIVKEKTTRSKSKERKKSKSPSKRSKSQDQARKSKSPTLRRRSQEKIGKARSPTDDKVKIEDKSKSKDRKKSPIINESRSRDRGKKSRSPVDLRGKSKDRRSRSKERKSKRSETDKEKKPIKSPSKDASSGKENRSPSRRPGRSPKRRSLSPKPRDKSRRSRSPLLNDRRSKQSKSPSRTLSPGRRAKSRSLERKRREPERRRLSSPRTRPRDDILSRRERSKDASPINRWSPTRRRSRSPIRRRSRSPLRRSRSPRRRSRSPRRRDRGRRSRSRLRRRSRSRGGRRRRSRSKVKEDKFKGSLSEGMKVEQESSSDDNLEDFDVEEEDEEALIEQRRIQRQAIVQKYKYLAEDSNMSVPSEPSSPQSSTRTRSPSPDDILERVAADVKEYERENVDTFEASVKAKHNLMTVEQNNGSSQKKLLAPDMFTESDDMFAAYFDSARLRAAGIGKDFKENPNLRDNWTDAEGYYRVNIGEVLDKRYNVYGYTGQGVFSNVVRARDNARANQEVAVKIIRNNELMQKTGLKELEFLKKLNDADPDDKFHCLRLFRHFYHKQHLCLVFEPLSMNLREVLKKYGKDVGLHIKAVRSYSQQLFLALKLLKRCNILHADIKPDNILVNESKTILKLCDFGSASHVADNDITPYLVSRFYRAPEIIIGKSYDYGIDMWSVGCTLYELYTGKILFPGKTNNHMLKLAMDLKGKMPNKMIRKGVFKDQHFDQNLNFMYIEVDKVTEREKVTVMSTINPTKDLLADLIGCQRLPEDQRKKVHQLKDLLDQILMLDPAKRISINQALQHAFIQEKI
Myosin-IIIa (Homo sapiens), sequence (Q8NEV4 whole entry): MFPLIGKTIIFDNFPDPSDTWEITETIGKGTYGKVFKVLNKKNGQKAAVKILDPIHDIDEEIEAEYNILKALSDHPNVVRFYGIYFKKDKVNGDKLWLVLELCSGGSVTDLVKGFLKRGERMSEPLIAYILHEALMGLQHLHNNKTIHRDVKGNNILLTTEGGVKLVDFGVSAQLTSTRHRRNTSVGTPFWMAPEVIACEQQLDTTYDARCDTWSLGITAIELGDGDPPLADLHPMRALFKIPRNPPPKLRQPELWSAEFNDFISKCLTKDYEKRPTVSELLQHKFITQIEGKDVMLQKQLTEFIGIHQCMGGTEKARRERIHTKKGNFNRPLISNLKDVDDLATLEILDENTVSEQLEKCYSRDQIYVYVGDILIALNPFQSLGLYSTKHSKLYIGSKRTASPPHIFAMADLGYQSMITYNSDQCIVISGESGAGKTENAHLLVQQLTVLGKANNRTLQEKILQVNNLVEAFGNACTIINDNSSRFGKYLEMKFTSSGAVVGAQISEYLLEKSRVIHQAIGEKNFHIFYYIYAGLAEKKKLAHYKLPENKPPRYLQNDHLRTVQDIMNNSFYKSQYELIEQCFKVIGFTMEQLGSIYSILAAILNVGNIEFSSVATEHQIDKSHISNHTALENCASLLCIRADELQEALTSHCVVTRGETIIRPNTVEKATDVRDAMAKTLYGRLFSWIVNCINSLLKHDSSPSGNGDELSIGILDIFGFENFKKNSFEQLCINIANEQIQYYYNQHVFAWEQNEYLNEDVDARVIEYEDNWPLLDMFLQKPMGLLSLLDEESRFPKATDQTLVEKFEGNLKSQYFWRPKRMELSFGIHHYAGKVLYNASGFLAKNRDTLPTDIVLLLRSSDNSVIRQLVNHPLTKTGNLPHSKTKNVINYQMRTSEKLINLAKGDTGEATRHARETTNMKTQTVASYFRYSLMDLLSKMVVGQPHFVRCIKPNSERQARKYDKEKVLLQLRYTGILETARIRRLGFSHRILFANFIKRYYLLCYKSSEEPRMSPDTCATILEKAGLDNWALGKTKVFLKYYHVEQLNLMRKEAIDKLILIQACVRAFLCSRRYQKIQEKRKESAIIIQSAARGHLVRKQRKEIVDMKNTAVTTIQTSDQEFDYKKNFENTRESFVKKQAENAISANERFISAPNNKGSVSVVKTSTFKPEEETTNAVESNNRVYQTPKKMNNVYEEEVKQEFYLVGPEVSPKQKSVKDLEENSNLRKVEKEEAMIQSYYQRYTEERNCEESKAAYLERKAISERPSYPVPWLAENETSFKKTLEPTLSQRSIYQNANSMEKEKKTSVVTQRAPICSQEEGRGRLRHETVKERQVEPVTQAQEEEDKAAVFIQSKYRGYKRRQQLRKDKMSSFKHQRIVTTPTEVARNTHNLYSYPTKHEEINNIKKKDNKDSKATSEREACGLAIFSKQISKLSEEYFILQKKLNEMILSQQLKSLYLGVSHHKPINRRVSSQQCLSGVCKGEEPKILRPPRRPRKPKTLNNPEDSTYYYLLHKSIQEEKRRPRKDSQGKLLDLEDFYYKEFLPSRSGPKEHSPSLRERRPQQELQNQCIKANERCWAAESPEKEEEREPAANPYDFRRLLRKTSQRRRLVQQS
Mast/stem cell growth factor receptor Kit (Homo sapiens), sequence (P10721 whole entry): as the sequence (P10721 whole entry A829P) above, with P829A counted along it
Myotonin-protein kinase (Homo sapiens), sequence (Q09013 whole entry): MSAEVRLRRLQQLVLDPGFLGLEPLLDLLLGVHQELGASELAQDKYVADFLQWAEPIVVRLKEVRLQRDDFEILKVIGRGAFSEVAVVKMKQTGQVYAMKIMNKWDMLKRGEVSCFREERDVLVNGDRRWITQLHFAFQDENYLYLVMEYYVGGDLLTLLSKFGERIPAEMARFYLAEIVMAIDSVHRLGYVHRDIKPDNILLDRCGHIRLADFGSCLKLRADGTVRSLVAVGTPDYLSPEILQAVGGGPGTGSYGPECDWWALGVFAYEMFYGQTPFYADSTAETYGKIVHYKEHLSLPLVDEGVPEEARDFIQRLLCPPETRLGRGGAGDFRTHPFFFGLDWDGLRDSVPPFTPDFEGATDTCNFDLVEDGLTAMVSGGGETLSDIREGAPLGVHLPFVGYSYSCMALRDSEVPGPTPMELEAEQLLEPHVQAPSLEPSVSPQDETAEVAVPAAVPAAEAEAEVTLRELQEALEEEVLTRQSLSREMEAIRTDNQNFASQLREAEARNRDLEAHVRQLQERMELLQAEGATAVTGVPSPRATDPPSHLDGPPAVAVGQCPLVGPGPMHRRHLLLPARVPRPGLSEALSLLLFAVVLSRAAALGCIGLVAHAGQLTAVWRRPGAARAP
Serine/threonine-protein kinase VRK2 (Homo sapiens), sequence (Q86Y07 whole entry): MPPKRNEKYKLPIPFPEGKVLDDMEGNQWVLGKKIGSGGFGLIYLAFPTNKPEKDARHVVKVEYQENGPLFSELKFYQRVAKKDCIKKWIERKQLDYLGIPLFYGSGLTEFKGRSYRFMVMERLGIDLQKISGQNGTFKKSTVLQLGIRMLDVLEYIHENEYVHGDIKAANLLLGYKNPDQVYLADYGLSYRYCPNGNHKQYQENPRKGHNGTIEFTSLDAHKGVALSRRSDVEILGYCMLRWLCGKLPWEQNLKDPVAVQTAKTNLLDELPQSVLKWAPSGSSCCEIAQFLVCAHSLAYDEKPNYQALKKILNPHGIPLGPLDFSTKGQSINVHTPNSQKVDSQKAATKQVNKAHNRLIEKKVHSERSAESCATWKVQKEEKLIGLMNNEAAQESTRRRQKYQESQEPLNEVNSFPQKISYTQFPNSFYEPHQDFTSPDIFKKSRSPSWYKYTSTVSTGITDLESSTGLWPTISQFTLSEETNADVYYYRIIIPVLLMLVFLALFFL

CN1CCN(c2cnc3c(C4CCN(C(=O)c5ccc(OC(F)(F)F)cc5N)CC4)ncnc3c2)CC1 [BAY-885]
inactive: residual activity [1] 100% | inhibition [2] 3.56% | residual activity [3] 100% | residual activity [4] 100% | residual activity [5] 98% | residual activity [6] 100% | residual activity [7] 100% | residual activity [8] 100% | residual activity [9] 81% | residual activity [10] 100% | residual activity [11] 100% | residual activity [12] 96% | residual activity [13] 96% | residual activity [14] 75% | residual activity [15] 100% | residual activity [16] 100% | residual activity [17] 89% | residual activity [18] 100% | residual activity [19] 100% | residual activity [20] 100% | residual activity [21] 86% | residual activity [22] 100%

Cc1nc(C2CCN(C(=O)c3ccc(OC(F)(F)F)cc3N)CC2)c2ncc(N3CCN(C)CC3)cc2n1 [BAY-693]
inactive: residual activity [1] 84% | inhibition [2] -1.28% | residual activity [3] 86% | residual activity [4] 89% | residual activity [5] 90% | residual activity [6] 100% | residual activity [7] 95% | residual activity [8] 100% | residual activity [9] 78% | residual activity [10] 100% | residual activity [11] 100% | residual activity [12] 100% | residual activity [13] 97% | residual activity [14] 100% | residual activity [15] 100% | residual activity [16] 91% | residual activity [17] 100% | residual activity [18] 96% | residual activity [19] 100% | residual activity [20] 96% | residual activity [21] 88% | residual activity [22] 86%
